In patent US20060093658A1 (priority 2004, published 2006):

Tests used:
[1] = test system: plasma coagulation Factor VIII; test: pharmacodynamic effect on plasma coagulation Factor VIII levels (one-stage clotting assay); type: in vivo, human
Description: (§1) Methods: This was a 2-part study in healthy human volunteers (18-45 years). […] All treatments were administered 30 minutes after a subcutaneous injection of low-molecular weight heparin to counteract the increase in clotting factors in the healthy volunteer population. […] Topical effects were also examined. Pain upon patch application was scored and compared to subcutaneous saline injection with a 27-gauge needle. […] Bleeding assessment (visual and photographic) were measured 2 min post-system removal. […] Routine safely assessments were also included, including the following: solicitation of Adverse Events (AEs), measurement of vital signs, measurement of serum sodium concentration and platelets, and measurement of urine output, specific gravity and osmolality.

[2] = cited from earlier work
in vivo [3] = conditions: hairless, guinea pig
Description: The retainer ring containing the patch was loaded onto an impact applicator, and the patch was applied to the prepared skin site with an impact energy of 0.26 J, delivered in less than 10 ms.
Efficiency of delivery was calculated as the percentage delivered of the total dose coated onto the array. For mass balance calculations, drug residuals left on the skin and on the array were also taken into account.

[4] = skin response / tolerability of microneedle patches; type: in vivo
Text: Following system removal, skin sites were visually assessed for signs of erythema, edema, bleeding, and infection until the sites returned to normal.

clinical = conditions: both, human, in vivo, iv
Description: as §1
Data analysis included a review of PK parameters (Cmax, Tmax, elimination rate constant, apparent half-life, and AUCinf) and were estimated using standard methodology. […] The intra-individual (sigma) and inter-individual (CV %) variabilities were estimated using additive+proportional and log normal distributions, respectively. Model performance between hierarchical models was assessed both numerically (Objective Function, OBJ) and graphically (comparison of the predicted and observed data). A reduction of^3 6.7 units in OBJ per additional structural model parameter was considered significant at p<0.01 on the x^2 distribution.

in vivo [5] = conditions: hairless, guinea pig; remark: listed apart in the source
[6] = desmopressin-coated microneedle patches

With `NC(=O)CC[C@@H]1NC(=O)[C@H](Cc2ccccc2)NC(=O)[C@H](Cc2ccc(O)cc2)NC(=O)CCSSC[C@@H](C(=O)N2CCC[C@H]2C(=O)N[C@H](CCCN=C(N)N)C(=O)NCC(N)=O)NC(=O)[C@H](CC(N)=O)NC1=O` [desmopressin] the “Factor VIII value” ([1]; IV-15 ug) was 280 % of baseline value, the “Factor VIII value” ([1]; IV-30 ug) was 321 % of baseline value and the “pharmacological activity of absorbed desmopressin (factor VIII measurements)” value ([1]; desmopressin absorbed after MFLX / IV) was “pharmacologically active”. For the same compound, the nasal bioavailability ([2]; human, in vivo, inhaled or intranasal) was 3.4%, the oral bioavailability ([2]; oral administration) was 0.1% and the dose excreted (in vivo [3]; iv, 20 ug) was 71%. The bioavailability (in vivo [3]; outbred euthymic (ibm:GOHI-hr and IAF:HA-HO-hr)) was 85%, the “tolerability of the desmopressin-coated microneedle patches” value ([4]; 5 or 15 min wear) was “well tolerated” and the “erythema following removal of the systems” value [4, 6] was “only mild erythema”. For the same compound, the “signs of edema, bleeding, or infection” value [4, 6] was “no signs of edema, bleeding, or infection”, the “time to resolution of erythema” value [4, 6] was at most 24 h and the Tmax (clinical) was 0.26 h. For the same compound, the t1/2 (clinical) was 3.8 ± 1.25 h, the Tmax (clinical; 15 ug, time of peak concentration) was 0.25 h and the Tmax (clinical; Tmax) was 0.5 h. The half-life (clinical; mean half-life) was 3.1 to 3.8 h, the half-life (clinical; t1/2) was 3.1 ± 0.38 h and the AUC (in vivo [5]; 82 ug) was 76 ng·h/mL. For the same compound, the Cmax (in vivo [5]; 82 ug) was 49 ng/mL, the AUC (in vivo [5]; iv, 11 ug) was 50.5 ng·h/mL and the Tmax (in vivo [5]; outbred euthymic (ibm:GOHI-hr and IAF:HA-HO-hr), 82 ug) was 1 h.
